The text below walks through data of PubChem BioAssay (NCI).

Among the test systems are IGROV1 ovarian; NCI-H226 lung; UACC-257 melanoma; MCF7 breast; SNB-75 CNS; SF-268 CNS; SK-MEL-28 melanoma; OVCAR-3 ovarian; PC-3 prostate; CAKI-1 renal; SK-MEL-2 melanoma; MDA-MB-435; COLO 205 colon; SW-620 colon; UO-31 renal; ACHN renal; NCI-H460 lung; SR leukemia.
Common to all, as to test: inhibition of tumour cell growth, NCI panel, 48 h

SMILES strings stand for the structures.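 Test compounds were applied to cells in 96-well plates for 48 hours at 5 doses. At the TGI there is no net growth.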

As to `CC(C)N=C(NC#N)NS(=O)(=O)c1cnccc1Nc1ccc(Cl)cc1`, the TGI with IGROV1 ovarian, in the test on NCI-H226 lung, in the test on UACC-257 melanoma, in the test on MCF7 breast, in the test with SNB-75 CNS and in the test with SF-268 CNS was over 100 µM throughout. Besides, the TGI with SK-MEL-28 melanoma, in the test with OVCAR-3 ovarian, in the test with PC-3 prostate, with CAKI-1 renal, in the test on SK-MEL-2 melanoma and with MDA-MB-435 was over 100 µM throughout. In addition, the TGI in the test with COLO 205 colon, in the test with SW-620 colon, in the test on UO-31 renal and with ACHN renal was over 100 µM in each case.

For `OCC1OC(n2nc(-c3ccccc3)nc2-c2cnccn2)C(O)C1O` (stereo not given), the TGI in the test on IGROV1 ovarian, in the test on UACC-257 melanoma, in the test on MCF7 breast, in the test on SNB-75 CNS, in the test on SF-268 CNS and with SK-MEL-28 melanoma was over 100 µM in each case. Also, the TGI with OVCAR-3 ovarian, with PC-3 prostate, in the test with NCI-H460 lung, with MDA-MB-435, with COLO 205 colon and in the test with SW-620 colon was over 100 µM each time. The compound also had a TGI in the test on UO-31 renal of over 100 µM.

As for `COC(=NCCC1=CCCCC1)OC`, the TGI in the test with IGROV1 ovarian, in the test with UACC-257 melanoma, in the test on MCF7 breast, in the test on SNB-75 CNS, with SF-268 CNS and in the test with SK-MEL-28 melanoma was over 100 µM each time. In addition, the TGI with OVCAR-3 ovarian, in the test on PC-3 prostate, in the test with CAKI-1 renal, in the test with NCI-H460 lung, in the test with SK-MEL-2 melanoma and with MDA-MB-435 was over 100 µM in each case. For the same compound, the TGI in the test with COLO 205 colon was 31.2 µM; in the test on SW-620 colon it was over 100 µM; with UO-31 renal, over 100 µM; with ACHN renal, over 100 µM.

For `Cc1ccc(-n2c(Cn3nnc(-c4cccnc4)n3)nn(C3OC(COC(=O)c4ccccc4)C(OC(=O)c4ccccc4)C3OC(=O)c3ccccc3)c2=S)cc1` (stereo not given), the TGI in the test with IGROV1 ovarian, in the test with NCI-H226 lung, in the test on UACC-257 melanoma, in the test with MCF7 breast, with SNB-75 CNS and with SF-268 CNS was over 100 µM in each case. Further, the TGI in the test on SK-MEL-28 melanoma, with OVCAR-3 ovarian, in the test with PC-3 prostate, in the test with CAKI-1 renal, in the test with NCI-H460 lung and in the test on SK-MEL-2 melanoma was over 100 µM in each case. In addition, the TGI with MDA-MB-435, in the test with COLO 205 colon, in the test with SW-620 colon, in the test on UO-31 renal and in the test with ACHN renal was over 100 µM in each case.

Consider `COC(=O)C1C2C=CC(C2)N1S(=O)(=O)c1ccccc1` (stereo not given), for which the TGI in the test on MCF7 breast, in the test on SF-268 CNS, in the test with SK-MEL-28 melanoma, in the test on OVCAR-3 ovarian, in the test on PC-3 prostate and with CAKI-1 renal was over 100 µM in each case. Further, the TGI with NCI-H460 lung, in the test on SK-MEL-2 melanoma, in the test on MDA-MB-435, in the test with COLO 205 colon, with SW-620 colon and in the test on UO-31 renal was over 100 µM in each case. The compound also returned a TGI with ACHN renal of over 100 µM.

`O=C(OCC12CC3CC(CC(C3)C1)C2)c1ccc(NCc2cc(O)ccc2O)cc1`: the TGI was determined as 3.21 µM in the test on IGROV1 ovarian; 6.71 µM in the test on NCI-H226 lung; 3.28 µM with UACC-257 melanoma; 36.8 µM with MCF7 breast; 7.23 µM in the test on SNB-75 CNS; 20.5 µM in the test on SF-268 CNS. Moreover, the TGI with SK-MEL-28 melanoma came out at 3.54 µM; in the test with OVCAR-3 ovarian it was 1.67 µM; in the test with PC-3 prostate, 4.88 µM; in the test on CAKI-1 renal, 2.06 µM; in the test on NCI-H460 lung, 7.5 µM; with SK-MEL-2 melanoma, 8.12 µM. Also, the TGI was 7.06 µM in the test with MDA-MB-435; 2.8 µM in the test with COLO 205 colon; over 25.7 µM in the test on SW-620 colon; 1.96 µM in the test with UO-31 renal; 7.04 µM in the test on ACHN renal.

As for `O=C1CC(=O)c2c(Cl)sc(Cl)c21`, the TGI in the test on IGROV1 ovarian, in the test with NCI-H226 lung, in the test on UACC-257 melanoma, with MCF7 breast, in the test with SNB-75 CNS and in the test with SF-268 CNS was over 100 µM throughout. The TGI in the test with SK-MEL-28 melanoma, with OVCAR-3 ovarian, with CAKI-1 renal, in the test with NCI-H460 lung, with SK-MEL-2 melanoma and with MDA-MB-435 was over 100 µM in each case. The TGI was over 100 µM in the test on COLO 205 colon; over 100 µM with SW-620 colon; over 100 µM with UO-31 renal; 75.2 µM in the test on SR leukemia; over 100 µM with ACHN renal.

Regarding `CC(=O)O[C@H]1CC[C@@]2(C)C(=CC[C@@H]3[C@@H]2CC[C@]2(C)C(=N/O)/C(=C/c4ccc([N+](=O)[O-])cc4)C[C@@H]32)C1`, the TGI in the test on IGROV1 ovarian is 55.8 µM; in the test on NCI-H226 lung it was 67.7 µM; in the test on UACC-257 melanoma, 1.55 µM; in the test with SNB-75 CNS it was 40.5 µM; with SF-268 CNS it was over 100 µM; in the test with SK-MEL-28 melanoma, over 100 µM. Also, the TGI with OVCAR-3 ovarian is 11.3 µM; in the test with PC-3 prostate, over 100 µM; in the test with CAKI-1 renal it was 6.1 µM; in the test on NCI-H460 lung it was over 100 µM; with SK-MEL-2 melanoma, 17.5 µM; in the test with MDA-MB-435, 29.3 µM. Further, the TGI in the test on COLO 205 colon was 10 µM; in the test on SW-620 colon it was over 100 µM; with UO-31 renal, 26 µM; in the test with ACHN renal, over 100 µM.
